The subject of test [1] is oocytes. The experiment in a line: In vitro oocyte culture with or without doxorubicin, apoptosis. It counts as cell-based, mouse. The note with it: 200 nM DXR, 24 hours, wild-type versus ASMase-deficient oocytes. The method, then: In addition to assessments of cellular morphology and caspase activation, some oocytes in each group are processed for DNA cleavage analysis as an endpoint for cell death using the Trevigen Comet Assay kit.
Female mice (43 days of age post-partum; Charles River Laboratories, Wilmington, Mass.) are superovulated with 10 IU of equine chorionic gonadotropin (eCG orPMSG) followed by 10 IU of human chorionic gonadotropin (hCG) 48 h later. Mature oocytes are collected from the oviducts 16 h after hCG injection. Cumulus enclosed oocytes are denuded by a 1-min incubation in 80 IU/ml of hyaluronidase, followed by three washes with culture medium. The medium used for all culture experiments is human tubal fluid (Irvine Scientific, Santa Ana, Calif.) supplemented with 0.5% bovine serum albumin (BSA).
Oocytes are cultured in 0.1 ml drops of culture medium (8-10 oocytes/drop) under paraffin oil and incubated with or without DXR (200 nM) and/or fumonisin-B1, sphingosine-1-phosphate or benzyloxycarbonyl-Val-Ala-Asp-fluoromethylketone (zVAD-FMK) for 24 h at 37° C. in a humidified atmosphere of 5% CO2-95% air. […] The percentage of oocytes that go through apoptosis out of the total number of oocytes cultured per drop in each experiment is then determined, and all experiments are independently repeated four to ten times with different mice.

Test [2] has as its system oocytes. Particulars: female mouse oocytes; Perez et al. (1997); cited from earlier work.
The test system of test [3] is germ cells of wild-type fetal ovaries (e13.5). The experiment in a line: Fetal ovary culture without hormonal support, germ cell survival. It counts as cell-based, mouse. The note with it: wild-type fetal ovaries, 72 hours in vitro without hormonal support; FB1 5-500 μM; S1P increasing concentrations. The method, then: To determine the basis of the extensive oocyte hyperplasia in ASMase −/− neonates, fetal ovaries are harvested from wild-type and mutant mice at embryonic day 13.5 (e13.5) for in vitro culture as a model to recapitulate the events surrounding germline death that occurs as a normal component of female gametogenesis. A time-dependent activation of programmed cell death is observed in the germline of wild-type fetal ovaries cultured without hormonal support for up to 72 hours (FIG. 2A). […] These findings indicate that there exists an ovarian-intrinsic cell death defect in the ASMase-deficient mouse, and point to enhanced survival of the developing germline during oogenesis as the mechanism underlying the enlarged oocyte pool seen in mutant females at birth.
Equivalent levels of in vitro germ cell survival are obtained by either ASMase gene knockout (FIG. 2A) or by S1P treatment (FIG. 2B).

Test [4] concerns oocytes. The experiment in a line: Microinjection of recombinant protein into single oocytes, apoptosis. It counts as cell-based, mouse. Particulars: wild-type oocytes; ASMase: six picoliters of a 1 mg/ml stock. The method, then: Human recombinant acid sphingomyelinase is synthesized and purified as described by He et al., Biochim. Biophys. Acta 1432, 251 (1999), incorporated herein by reference in its entirety. Six picoliters of vehicle or of a 1 mg/ml stock of the enzyme are microinjected into single oocytes using a Zeiss Axiovert 135 inverted microscope equipped with Narishige micromanipulators and a PLI-100 pico-injector. Oocytes that survive the microinjection procedure (>75%) are then cultured and assessed for the occurrence of apoptosis. Furthermore, microinjection of human recombinant Bax protein into single oocytes and assessments of apoptosis are made as described by Perez, et al. (1997) id. Microinjection of human recombinant Bax protein into oocytes duplicates the pro-apoptotic effects of both human recombinant ASMase microinjection and anti-cancer drug treatment (FIG. 3E).

These results are taken from patent publication US7850984B2, “Protection of the female reproductive system from natural and artificial insults” (The General Hospital Corporation, priority 2000, dated 2010).

For `COc1cccc2c1C(=O)c1c(O)c3c(c(O)c1C2=O)C[C@@](O)(C(=O)CO)C[C@@H]3O[C@H]1C[C@H](N)[C@H](O)[C@H](C)O1` [DXR, doxorubicin, reference compound], the “apoptotic event in oocytes” value in test [1] was “elicited in wild-type, but not ASMase-deficient, oocytes”. In test [2], the “oocyte cell death on in vitro exposure” value is “undergo a type of cell death, referred to as apoptosis”.
In the case of `CCCC[C@@H](C)[C@@H](OC(=O)C[C@@H](CC(=O)O)C(=O)O)[C@H](C[C@@H](C)C[C@H](O)CCCC[C@@H](O)C[C@H](O)[C@H](C)N)OC(=O)C[C@@H](CC(=O)O)C(=O)O` [FB1, fumonisin-B1, reference compound], the “germ cell survival / germ cell apoptosis in cultured fetal ovaries” value in test [3] is listed as “does not alter survival rates in the female germline”.
For the molecule “human recombinant Bax: human recombinant Bax protein microinjected into single oocytes”, the “apoptosis after microinjection versus vehicle-injected oocytes” value in test [4] is listed as “significant (P<0.05) increase in apoptosis”.

B1: human recombinant ASMase: human recombinant acid sphingomyelinase enzyme microinjected into single oocytes (protein, UniProt P17405 47-631, looked up)
Sphingomyelin …: LALSDSRVLWAPAEAHPLSPQGHPARLHRIVPRLRDVFGWGNLTCPICKGLFTAINLGLKKEPNVARVGSVAIKLCNLLKIAPPAVCQSIVHLFEDDMVEVWRRSVLSPSEACGLLLGSTCGHWDIFSSWNISLPTVPKPPPKPPSPPAPGAPVSRILFLTDLHWDHDYLEGTDPDCADPLCCRRGSGLPPASRPGAGYWGEYSKCDLPLRTLESLLSGLGPAGPFDMVYWTGDIPAHDVWHQTRQDQLRALTTVTALVRKFLGPVPVYPAVGNHESTPVNSFPPPFIEGNHSSRWLYEAMAKAWEPWLPAEALRTLRIGGFYALSPYPGLRLISLNMNFCSRENFWLLINSTDPAGQLQWLVGELQAAEDRGDKVHIIGHIPPGHCLKSWSWNYYRIVARYENTLAAQFFGHTHVDEFEVFYDEETLSRPLAVAFLAPSATTYIGLNPGYRVYQIDGNYSGSSHVVLDHETYILNLTQANIPGAIPHWQLLYRARETYGLPNTLPTAWHNLVYRMRGDMQLFQTFWFLYHKGHPPSEPCGTPCRLATLCAQLSARADSPALCRHLMPDGSLPEAQSLWPRPLFC
As to B1, in test [4], the “apoptosis after microinjection versus vehicle-injected oocytes” value is “significant (P<0.05) increase in apoptosis”.
